Reference: article PMC3375280 (PLoS ONE, 2012)
Where a chain is given by its changes, count along the chain named.

Key:
[1] = target: T1, AT1 S105A mutant receptor (Rattus norvegicus, UniProt P25095, S105A); test: competition binding, S105A mutant; conditions: for Kd: S105A (S105 in the source), COS1 membranes, read-out: Binding affinity (Kd); for Kd ratio relative to WT (in parentheses): S105A / WT
T1 construct: expressed in transfected cells; host or cells: COS1
T1 sequence (P25095 1-359 S105A): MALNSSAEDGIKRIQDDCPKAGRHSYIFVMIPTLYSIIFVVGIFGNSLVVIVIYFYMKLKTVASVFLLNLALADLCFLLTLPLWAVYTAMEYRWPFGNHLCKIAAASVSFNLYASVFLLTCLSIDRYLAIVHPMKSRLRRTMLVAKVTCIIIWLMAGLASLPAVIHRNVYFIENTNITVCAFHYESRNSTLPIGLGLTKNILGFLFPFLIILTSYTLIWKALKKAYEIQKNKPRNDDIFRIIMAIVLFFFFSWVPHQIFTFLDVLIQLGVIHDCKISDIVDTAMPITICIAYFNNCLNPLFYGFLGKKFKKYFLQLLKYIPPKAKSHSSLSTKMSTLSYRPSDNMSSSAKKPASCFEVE
Description: (§1) The Kd and Bmax values of receptor binding were determined by ^125I-[Sar^1, Ile^8] […] Membranes expressing the WT or mutant AT1 receptors were incubated with 100 pM ^125I-[Sar^1, Ile^8] […] The binding reaction was terminated by filtering the incubation mixture through Whatman GF/C glass filters, and the residues were extensively washed further with binding buffer. The bound ligand fraction was determined from the counts per minute (cpm) remaining on the membrane. Binding kinetics values were determined as previously described.

[2] = target: T2, AT1 S107A mutant receptor (Rattus norvegicus, UniProt P25095, S107A); test: competition binding, S107A mutant; conditions: for Kd ratio relative to WT (in parentheses): S107A / WT; for Kd: S107A, COS1 membranes, read-out: Binding affinity (Kd)
T2 construct: expressed in transfected cells; host or cells: COS1
T2 sequence (P25095 1-359 S107A): T1 sequence (P25095 1-359 S105A) with A105S, S107A
Description: as §1

[3] = target: T3, AT1 A114G mutant receptor (Rattus norvegicus, UniProt P25095, A114G); test: competition binding, A114G mutant; conditions: for Kd ratio relative to WT (in parentheses): A114G / WT; for Kd: A114G, COS1 membranes, read-out: Binding affinity (Kd)
T3 construct: expressed in transfected cells; host or cells: COS1
T3 sequence (P25095 1-359 A114G): T1 sequence (P25095 1-359 S105A) with A105S, A114G
Description: as §1

[4] = target: T4, AT1 C76A/S107C/C289A mutant receptor (Rattus norvegicus, UniProt P25095, C289A/C76A/S107C); test: competition binding, C76A/S107C/C289A mutant; conditions: for Kd ratio relative to WT (in parentheses): C76A/S107C/C289A / WT; for Kd: C76A/S107C/C289A, COS1 membranes, read-out: Binding affinity (Kd)
T4 construct: expressed in transfected cells; host or cells: COS1
T4 sequence (P25095 1-359 C76A/S107C/C289A): T1 sequence (P25095 1-359 S105A) with C76A, A105S, S107C, C289A
Description: as §1

[5] = target: T5, AT1 C76A/S109C/C289A mutant receptor (Rattus norvegicus, UniProt P25095, C289A/C76A/S109C); test: competition binding, C76A/S109C/C289A mutant; conditions: for Kd ratio relative to WT (in parentheses): C76A/S109C/C289A / WT; for Kd: C76A/S109C/C289A, COS1 membranes, read-out: Binding affinity (Kd)
T5 construct: expressed in transfected cells; host or cells: COS1
T5 sequence (P25095 1-359 C76A/S109C/C289A): T1 sequence (P25095 1-359 S105A) with C76A, A105S, S109C, C289A
Description: as §1

[6] = target: T6, AT1 C76A/L112C/C289A mutant receptor (Rattus norvegicus, UniProt P25095, C289A/C76A/L112C); test: competition binding, C76A/L112C/C289A mutant; conditions: for Kd ratio relative to WT (in parentheses): C76A/L112C/C289A / WT; for Kd: C76A/L112C/C289A, COS1 membranes, read-out: Binding affinity (Kd)
T6 construct: expressed in transfected cells; host or cells: COS1
T6 sequence (P25095 1-359 C76A/L112C/C289A): T1 sequence (P25095 1-359 S105A) with C76A, A105S, L112C, C289A
Description: as §1

Kd [1] | Kd ratio relative to WT (in parentheses) [2] | Kd [2] | Kd ratio relative to WT (in parentheses) [3] | Kd [3] | Kd ratio relative to WT (in parentheses) [4] | Kd [4] | Kd ratio relative to WT (in parentheses) [5] | Kd [5] | Kd ratio relative to WT (in parentheses) [6] | Kd [6] | Kd ratio relative to WT (in parentheses) [1] | SMILES
6.7 ± 3.8 nM | 1.1 fold | 2.5 ± 0.5 nM | 1.7 fold | 4 ± 1.4 nM | 2.7 fold | 6.2 ± 3.2 nM | 13 fold | 29 ± 5 nM | 2.7 fold | 6.1 ± 2.1 nM |  | CCCc1nc(C(C)(C)O)c(C(=O)O)n1Cc1ccc(-c2ccccc2-c2nnn[nH]2)cc1 [Olmesartan, olmesartan, reference compound]
37 ± 23 nM | 1.2 fold | 59 ± 27 nM | 3.8 fold | 183 ± 17 nM | 2.1 fold | 102 ± 19 nM | 2.0 fold | 96 ± 18 nM | 1.3 fold | 62 ± 9 nM | 0.8 fold | CCCc1nc(C(C)(C)O)c(C(N)=O)n1Cc1ccc(-c2cc(Cc3ccc(O)cc3)ccc2-c2nnn[nH]2)cc1 [R794847]
3.2 ± 2 nM | 1.6 fold | 1.3 ± 0.2 nM | 1.4 fold | 1.1 ± 0.1 nM | 2.3 fold | 1.8 ± 0.4 nM | 14 fold | 11 ± 3 nM | 4.0 fold | 3.2 ± 1.3 nM | 4.0 fold | CCCc1nc(C(C)(C)O)c(C(N)=O)n1Cc1ccc(-c2ccccc2-c2nnn[nH]2)cc1 [R239470]
